Experimental data: ChEMBL document CHEMBL6182898, “Design, synthesis and bioevaluation of novel hydrazide derivatives as enhancers of immunotherapy and DNA-damage response in antitumor therapy” (Eur J Med Chem, 2025)
Calls of active or inactive are those of the source. The rule behind the calls is not given here.

What was measured:
[1] = molecular target: T1, Protein deacetylase HDAC6 (Homo sapiens, UniProt Q9UBN7); assay: Inhibition of HDAC6 (unknown origin)
T1 sequence (Q9UBN7 whole entry): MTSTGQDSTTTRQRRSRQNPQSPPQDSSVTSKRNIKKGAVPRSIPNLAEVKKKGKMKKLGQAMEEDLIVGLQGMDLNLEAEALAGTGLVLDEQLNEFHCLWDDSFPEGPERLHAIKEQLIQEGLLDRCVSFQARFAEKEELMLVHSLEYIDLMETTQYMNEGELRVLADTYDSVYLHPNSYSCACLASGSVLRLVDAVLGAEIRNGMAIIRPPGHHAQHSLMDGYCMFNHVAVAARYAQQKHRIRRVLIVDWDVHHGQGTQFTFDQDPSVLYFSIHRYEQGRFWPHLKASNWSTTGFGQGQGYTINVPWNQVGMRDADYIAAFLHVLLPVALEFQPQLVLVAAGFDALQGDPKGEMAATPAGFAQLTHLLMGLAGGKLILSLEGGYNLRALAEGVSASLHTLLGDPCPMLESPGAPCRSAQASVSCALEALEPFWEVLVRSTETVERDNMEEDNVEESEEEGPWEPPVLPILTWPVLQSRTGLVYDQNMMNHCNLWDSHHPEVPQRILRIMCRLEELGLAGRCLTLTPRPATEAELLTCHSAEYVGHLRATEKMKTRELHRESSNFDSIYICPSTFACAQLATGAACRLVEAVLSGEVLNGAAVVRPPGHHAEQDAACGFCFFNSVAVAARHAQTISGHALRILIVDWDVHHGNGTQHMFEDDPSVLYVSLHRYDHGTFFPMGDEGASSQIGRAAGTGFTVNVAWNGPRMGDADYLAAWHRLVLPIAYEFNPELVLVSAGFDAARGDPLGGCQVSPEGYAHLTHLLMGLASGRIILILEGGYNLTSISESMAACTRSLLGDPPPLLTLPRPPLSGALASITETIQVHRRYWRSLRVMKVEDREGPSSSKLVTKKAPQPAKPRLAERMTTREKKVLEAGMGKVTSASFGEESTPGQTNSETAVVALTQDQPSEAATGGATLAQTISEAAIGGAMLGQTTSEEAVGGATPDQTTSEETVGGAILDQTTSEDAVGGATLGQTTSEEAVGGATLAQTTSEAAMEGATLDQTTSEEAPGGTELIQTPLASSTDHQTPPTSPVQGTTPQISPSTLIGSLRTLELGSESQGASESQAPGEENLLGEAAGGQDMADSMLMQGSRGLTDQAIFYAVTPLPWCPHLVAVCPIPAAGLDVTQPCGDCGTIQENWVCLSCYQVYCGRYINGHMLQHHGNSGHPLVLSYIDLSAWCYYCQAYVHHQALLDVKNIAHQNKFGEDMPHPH

[2] = molecular target: T2, Histone deacetylase 3 (Mus musculus) (UniProt O88895); assay: Inhibition of HDAC3 in mouse B16-F10 cells assessed as reduction in PD-L1 level at 2.5 uM incubated for 24 hrs by immunofluorescence based analysis; format: cell-based
T2 sequence (whole entry): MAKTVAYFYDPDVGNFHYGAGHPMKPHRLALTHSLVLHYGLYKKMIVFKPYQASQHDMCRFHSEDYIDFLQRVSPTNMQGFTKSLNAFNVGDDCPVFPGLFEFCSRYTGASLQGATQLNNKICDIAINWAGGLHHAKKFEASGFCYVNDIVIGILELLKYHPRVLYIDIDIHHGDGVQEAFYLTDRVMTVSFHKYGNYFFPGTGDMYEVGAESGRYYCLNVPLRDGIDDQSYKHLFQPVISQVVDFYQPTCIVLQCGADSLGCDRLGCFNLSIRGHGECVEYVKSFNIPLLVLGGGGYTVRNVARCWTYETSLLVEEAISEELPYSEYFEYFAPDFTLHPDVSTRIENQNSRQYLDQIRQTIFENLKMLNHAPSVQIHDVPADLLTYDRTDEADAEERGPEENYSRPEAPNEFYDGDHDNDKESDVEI

Histone deacetylase 1 = Histone deacetylase 1 (Homo sapiens, UniProt Q13547); assay: Inhibition of HDAC1 (unknown origin)
Chain of Histone deacetylase 1 (Q13547 whole entry): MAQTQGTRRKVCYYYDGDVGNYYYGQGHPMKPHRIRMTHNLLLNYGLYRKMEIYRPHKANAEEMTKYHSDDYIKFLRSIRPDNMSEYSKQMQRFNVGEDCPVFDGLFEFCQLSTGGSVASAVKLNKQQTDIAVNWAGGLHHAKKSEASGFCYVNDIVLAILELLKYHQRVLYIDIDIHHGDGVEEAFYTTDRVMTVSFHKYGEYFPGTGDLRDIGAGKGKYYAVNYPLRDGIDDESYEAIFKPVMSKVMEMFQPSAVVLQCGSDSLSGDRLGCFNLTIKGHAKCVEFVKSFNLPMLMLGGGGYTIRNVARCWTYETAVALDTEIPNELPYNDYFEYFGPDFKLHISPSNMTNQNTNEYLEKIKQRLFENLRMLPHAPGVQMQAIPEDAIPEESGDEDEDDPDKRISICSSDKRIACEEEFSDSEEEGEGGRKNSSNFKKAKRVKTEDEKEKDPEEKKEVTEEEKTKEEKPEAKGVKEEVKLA

B16-F10 [3] = assay: Induction of apoptosis in mouse B16-F10 cells assessed as late-stage apoptosis at 2.5 uM incubated for 48 hrs by Annexin V-FITC/PI staining based flow cytometry relative to control; format: functional
B16-F10 [4] = assay: Inhibition of cell invasion in mouse B16-F10 cells at 5 uM by transwell assay relative to control; format: functional
SK-OV-3 [5] = assay: Antiproliferative activity against human SK-OV-3 cells incubated for 72 hrs by MTT assay; format: functional, cell-based; conditions: SK-OV-3, 72 h
B16-F10 [6] = assay: Induction of apoptosis in mouse B16-F10 cells assessed as late-stage apoptosis at 5 uM incubated for 48 hrs by Annexin V-FITC/PI staining based flow cytometry relative to control; format: functional
4T1 [7] = assay: cells; format: functional; conditions: Mus musculus, time 72 hrs
[8] = Antiproliferative activity against human HK-2 cells incubated for 72 hrs by MTT assay
[9] = molecular target: T2, Histone deacetylase 3 (Mus musculus); assay: Inhibition of HDAC3 in mouse B16-F10 cells assessed as increase in Ac-H3 level at 2.5 uM incubated for 24 hrs by immunofluorescence based analysis; format: cell-based
B16-F10 [10] = assay: Upregulation of Ac-alpha-tubulin level in mouse B16-F10 cells at 2.5 to 10 uM incubated for 24 hrs by Western blot analysis; format: functional, cell-based; conditions: dose 2.5-10 µM
B16-F10 [11] = assay: Induction of antitumor immunity in mouse B16-F10 cells assessed as reduction in PD-L1 level incubated for 24 hrs by Western blot analysis; format: functional, cell-based; conditions: dose 2.5-10 µM
HCT-116 = assay: cells; format: functional; conditions: Homo sapiens, time 72 hrs
B16-F10 [12] = assay: Induction of apoptosis in mouse B16-F10 cells incubated for 48 hrs by Annexin V-FITC/PI staining based flow cytometry; format: functional, cell-based; conditions: dose 2.5-10 µM
B16-F10 [13] = assay: cells; format: functional; conditions: Mus musculus, time 72 hrs
B16-F10 [14] = assay: Induction of apoptosis in mouse B16-F10 cells assessed as late-stage apoptosis at 10 uM incubated for 48 hrs by Annexin V-FITC/PI staining based flow cytometry relative to control; format: functional
K562 = assay: Antiproliferative activity against human K562 cells incubated for 72 hrs by CCK8 assay; format: functional, cell-based; conditions: K562, 72 h
SK-OV-3 [15] = assay: cells; format: functional; conditions: Homo sapiens, time 72 hrs
B16-F10 [16] = assay: Induction of antitumor immunity in mouse B16-F10 cells assessed as increase in IFN-gamma level incubated for 24 hrs by Western blot analysis; format: functional, cell-based; conditions: dose 2.5-10 µM
B16-F10 [17] = assay: Induction of cell cycle arrest in mouse B16-F10 cells assessed as cell accumulation incubated for 24 hrs by PI staining based flow cytometry; format: functional; conditions: dose 2.5-10 µM
4T1 [18] = assay: Antiproliferative activity against mouse 4T1 cells incubated for 72 hrs by MTT assay; format: functional, cell-based; conditions: 4T1, 72 h
Histone deacetylase 3 = Histone deacetylase 3 (Homo sapiens, UniProt O15379); assay: Inhibition of HDAC3 (unknown origin)
Chain of Histone deacetylase 3 (O15379 whole entry): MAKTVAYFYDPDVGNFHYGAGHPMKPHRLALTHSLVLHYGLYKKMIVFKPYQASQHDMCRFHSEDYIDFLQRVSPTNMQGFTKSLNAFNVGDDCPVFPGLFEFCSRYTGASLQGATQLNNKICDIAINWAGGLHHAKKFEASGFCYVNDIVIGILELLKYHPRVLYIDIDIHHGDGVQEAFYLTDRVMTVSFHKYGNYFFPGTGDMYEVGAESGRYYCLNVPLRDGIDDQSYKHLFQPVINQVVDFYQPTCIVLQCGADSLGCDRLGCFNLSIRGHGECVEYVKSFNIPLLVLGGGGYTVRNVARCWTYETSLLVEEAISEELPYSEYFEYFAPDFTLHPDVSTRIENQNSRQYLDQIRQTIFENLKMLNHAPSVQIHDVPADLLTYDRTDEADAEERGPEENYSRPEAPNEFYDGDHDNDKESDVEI

| IC50 [1] | inhibition [2] | IC50 (Histone deacetylase 1) | IC50 (SK-OV-3 [5]) | inhibition [9] | IC50 (K562) | Compound | Activity (B16-F10 [3]) | inhibition at 5 µM (B16-F10 [4]) | Activity (B16-F10 [6]) | inhibition at 10 µM (4T1 [7]) | IC50 at 72 h [8] | Activity (B16-F10 [10]) | Activity (B16-F10 [11]) | inhibition at 10 µM (HCT-116) | Activity (B16-F10 [12]) | inhibition at 10 µM (B16-F10 [13]) | Activity (B16-F10 [14]) | inhibition at 10 µM (SK-OV-3 [15]) | Activity (B16-F10 [16]) | Activity (B16-F10 [17]) | also measured |
| --- | --- | --- | --- | --- | --- | --- | --- | --- | --- | --- | --- | --- | --- | --- | --- | --- | --- | --- | --- | --- | --- |
| > 10 µM | Active | 1.57 µM | 8.37 µM | Active | 4.57 µM | CCCNNC(=O)c1ccc(NC(=O)c2cnc(-c3ccc(OC(F)(F)F)cc3)s2)cc1 | 24% | > 70% | 45.8% | 32.8% | 10.9 µM | inactive | Dose-dependent-effect; Activity Was Similar To Ms-275 | < 50% | Dose-dependent-effect; Activity Similar To Vorinostat | 54.7% | 55.3% | < 50% | Dose-dependent-effect; Activity Was Similar To Ms-275 | Dose-dependent-effect | IC50 (4T1 [18]): 7.57 µM; IC50 (Histone deacetylase 3): 0.4 µM |
| > 10 µM | Active | 4.68 µM | 5.76 µM | Active | 1.06 µM | CCCNNC(=O)CCCCCCNC(=O)c1cnc(-c2ccc(NC(=O)OC(C)(C)C)cc2)s1 | 20.6% | > 70% | 43.5% | 33.1% | 11.5 µM | inactive | Dose-dependent-effect; Activity Was Similar To Ms-275 | 93.6% | Dose-dependent-effect; Activity Similar To Vorinostat | 60.7% | 51.5% | < 50% | Dose-dependent-effect; Activity Was Similar To Ms-275 | Dose-dependent-effect | IC50 (4T1 [18]): 9.83 µM; IC50 (Histone deacetylase 3): 0.31 µM |
